Data on 51 compounds can be found in patent publication US11274090B2, “P300/CBP HAT inhibitors” (Constellation Pharmaceuticals, Inc., priority 2018, dated 2022).

For the experiment, the target named is p300 HAT domain (residues 1287-1666) (Homo sapiens (Human), UniProt Q09472). Kind of experiment: p300 HAT SPA assay (scintillation proximity assay, acetylation of biotinylated H3(1-21) peptide). In kind it is biochemical. The conditions noted are these: average of at least 2 replicate titrations. Put shortly:
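Scintillation proximity readout of acetylated biotin-H3(1-21) captured on streptavidin plates after 1.5 hr at RT; enzyme was Ni2+/anion-exchange-purified HAT domain in 20 mM Hepes pH 7.5. Inhibitor IC50s calculated from the data.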

p300 HAT domain (residues 1287-1666), sequence (Q09472 1287-1666): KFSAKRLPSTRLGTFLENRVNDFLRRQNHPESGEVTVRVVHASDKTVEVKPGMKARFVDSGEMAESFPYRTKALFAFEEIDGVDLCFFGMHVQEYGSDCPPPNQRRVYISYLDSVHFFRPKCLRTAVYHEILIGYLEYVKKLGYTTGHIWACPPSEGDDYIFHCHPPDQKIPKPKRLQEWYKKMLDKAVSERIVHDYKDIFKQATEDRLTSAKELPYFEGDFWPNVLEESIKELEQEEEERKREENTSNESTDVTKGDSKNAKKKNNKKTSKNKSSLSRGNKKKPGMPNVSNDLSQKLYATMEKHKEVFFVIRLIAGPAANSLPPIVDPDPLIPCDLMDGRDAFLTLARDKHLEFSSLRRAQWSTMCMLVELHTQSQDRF

What is called IC50 is the midpoint of a concentration-inhibition curve. Take `Cn1cc(-c2ccnc(NC(=O)C(NCCc3ccc(C#N)cc3)c3ccccc3)c2)cn1` (single isomer, unassigned) [122 Isomer 2]: it took 48900 nM to reach half-maximal inhibition (IC50).
`CC1CN(c2ccc(NC(=O)C(NC[C@@H](C)c3ccc(C#N)cc3)c3ccccc3)nc2)CC(=O)N1C` (single isomer, unassigned) [124 Isomer 2] registered a 50% inhibitory concentration (IC50) of 768 nM.
As for `CC1CN(C)C(=O)CN1c1ccc(NC(=O)C(NC[C@@H](C)c2ccc(C#N)cc2)c2ccccc2)nc1` (single isomer, unassigned) [125 Isomer 1], the figure is 1650 nM; as for `CC1CN(C)C(=O)CN1c1ccc(NC(=O)C(NC[C@@H](C)c2ccc(C#N)cc2)c2ccccc2)nc1` (single isomer, unassigned) [125 Isomer 2], over 2000 nM.
The value for `CC1CN(C)C(=O)CN1c1ccc(NC(=O)C(NC[C@@H](C)c2ccc(C#N)cc2)c2ccccc2)nc1` (single isomer, unassigned) [125 Isomer 3] was 17.4 nM; that for `CC1CN(C)C(=O)CN1c1ccc(NC(=O)C(NC[C@@H](C)c2ccc(C#N)cc2)c2ccccc2)nc1` (single isomer, unassigned) [125 Isomer 4] was 19.6 nM; that for `CC1C(=O)N(C)CCN1c1ccc(NC(=O)C(NC[C@@H](C)c2ccc(C#N)cc2)c2ccccc2)nc1` (single isomer, unassigned) [126 Isomer 1] was 21.1 nM.
The value for `CC1C(=O)N(C)CCN1c1ccc(NC(=O)C(NC[C@@H](C)c2ccc(C#N)cc2)c2ccccc2)nc1` (single isomer, unassigned) [126 Isomer 2] was over 2000 nM; that for `CC1C(=O)N(C)CCN1c1ccc(NC(=O)C(NC[C@@H](C)c2ccc(C#N)cc2)c2ccccc2)nc1` (single isomer, unassigned) [126 Isomer 3] was over 2000 nM.
`CC1C(=O)N(C)CCN1c1ccc(NC(=O)C(NC[C@@H](C)c2ccc(C#N)cc2)c2ccccc2)nc1` (single isomer, unassigned) [126 Isomer 4] gave a half-maximal inhibitory concentration (IC50) of 22 nM.
As for `CC(CNC(C(=O)Nc1ccc(-c2cnn(C)c2)cn1)c1cnn(C)c1)c1ccc(C#N)cc1` (single isomer, unassigned) [127 Isomer 1], the figure is over 2000 nM; as for `CC(CNC(C(=O)Nc1ccc(-c2cnn(C)c2)cn1)c1cnn(C)c1)c1ccc(C#N)cc1` (single isomer, unassigned) [127 Isomer 2], over 2000 nM; as for `CC(CNC(C(=O)Nc1ccc(-c2cnn(C)c2)cn1)c1cnn(C)c1)c1ccc(C#N)cc1` (single isomer, unassigned) [127 Isomer 3], over 2000 nM.
`CC(CNC(C(=O)Nc1ccc(-c2cnn(C(F)F)c2)cn1)c1cnn(C)c1)c1ccc(C#N)cc1` (single isomer, unassigned) [128 Isomer 1] gave a half-inhibitory concentration (IC50) of 572 nM.
Regarding `CC(CNC(C(=O)Nc1ccc(-c2cnn(C(F)F)c2)cn1)c1cnn(C)c1)c1ccc(C#N)cc1` (single isomer, unassigned) [128 Isomer 2], the concentration for half-maximal inhibition (IC50) was over 2000 nM.
As for `CC(CNC(C(=O)Nc1ccc(-c2cnn(C(F)F)c2)cn1)c1cnn(C)c1)c1ccc(C#N)cc1` (single isomer, unassigned) [128 Isomer 3], the figure is over 2000 nM; as for `C[C@H](CNC(C(=O)Nc1ccc(-c2cnn(C)c2)cn1)c1cncc(F)c1)c1ccc(C#N)cc1` (single isomer, unassigned) [129 Isomer 1], 75.4 nM.
With `C[C@H](CNC(C(=O)Nc1ccc(-c2cnn(C)c2)cn1)c1cncc(F)c1)c1ccc(C#N)cc1` (single isomer, unassigned) [129 Isomer 2], half-maximal inhibition (IC50) was put at 20.2 nM.
In turn, `Cc1nn(C)c(C)c1-c1ccc(NC(=O)C(NC[C@@H](C)c2ccc(C#N)cc2)c2ccccc2)nc1` (single isomer, unassigned) [130 Isomer 1] registered an IC50 of under 2000 nM.
In turn, `Cc1noc(C)c1-c1ccc(NC(=O)C(NC[C@@H](C)c2ccc(C#N)cc2)c2ccccc2)nc1` (single isomer, unassigned) [131 Isomer 1] yielded an IC50 of 367 nM.
The compound `Cc1noc(C)c1-c1ccc(NC(=O)C(NC[C@@H](C)c2ccc(C#N)cc2)c2ccccc2)nc1` (single isomer, unassigned) [131 Isomer 2] returned a half-inhibitory concentration (IC50) of 38 nM.
For `C[C@H](CNC(C(=O)Nc1ccc(-c2cnn(CC(=O)N3CCCC3)c2)cn1)c1ccccc1)c1ccc(C#N)cc1` (single isomer, unassigned) [132 Isomer 1], the 50% inhibitory concentration (IC50) was determined as 932 nM.
As for `Cc1n[nH]c(C)c1-c1ccc(NC(=O)C(NC[C@@H](C)c2ccc(C#N)cc2)c2ccccc2)nc1` (single isomer, unassigned) [133 Isomer 1], the figure is 1230 nM.
As to `C[C@H](CNC(C(=O)Nc1ccc(-c2ccc(=O)n(C)n2)cn1)c1ccccc1)c1ccc(C#N)cc1` (single isomer, unassigned) [134 Isomer 1], the IC50 was over 2000 nM.
`CC(=O)N1CCN(c2ccc(NC(=O)C(NC[C@@H](C)c3ccc(C#N)cc3)c3cccc(F)c3)nc2)CC1` (single isomer, unassigned) [135 Isomer 1]: the 50% inhibitory concentration (IC50) was 855 nM.
In turn, `CC(CNC(C(=O)Nc1ccc(N2CCN(C)C(=O)C2)cn1)c1cnn(C)c1)c1ccc(C#N)cc1` (single isomer, unassigned) [136 Isomer 1] returned an IC50 of over 2000 nM.
As for `CC(CNC(C(=O)Nc1ccc(N2CCN(C)C(=O)C2)cn1)c1cnn(C)c1)c1ccc(C#N)cc1` (single isomer, unassigned) [136 Isomer 2], the figure is over 2000 nM.
Consider `CC(CNC(C(=O)Nc1ccc(N2CCN(C)C(=O)C2)cn1)c1cnn(C)c1)c1ccc(C#N)cc1` (single isomer, unassigned) [136 Isomer 4], for which the half-maximal inhibitory concentration (IC50) is over 2000 nM.
`C[C@H](CNC(C(=O)Nc1ccc(N2CCN(C)C(=O)C2)cn1)c1cccc(F)c1)c1ccc(C#N)cc1` (single isomer, unassigned) [137 Isomer 1] gave a 50% inhibitory concentration (IC50) of 783 nM.
Consider `C[C@H](CNC(C(=O)Nc1ccc(-c2cnn(CC(=O)N(C)C)c2)cn1)c1cccc(F)c1)c1ccc(C#N)cc1` (single isomer, unassigned) [138 Isomer 1], for which the IC50 was found to be 435 nM.
As for `C[C@H](CNC(C(=O)Nc1ccc(-c2cnn(C)c(=O)c2)cn1)c1ccccc1)c1ccc(C#N)cc1` (single isomer, unassigned) [139 Isomer 2], the figure is over 2000 nM; as for `Cn1cc(-c2ccc(NC(=O)C(NCCc3ccc(C(F)(F)F)nc3)c3ccccc3)nc2)cn1` (single isomer, unassigned) [140 Isomer 1], 153 nM; as for `Cn1cc(-c2ccc(NC(=O)C(NCCc3ccc(C(F)(F)F)nc3)c3ccccc3)nc2)cn1` (single isomer, unassigned) [140 Isomer 2], over 2000 nM.
Consider `Cc1ccc(CCNC(C(=O)Nc2ccc(-c3cnn(C)c3)cn2)c2ccccc2)cn1` (single isomer, unassigned) [141 Isomer 1], for which the IC50 was determined as 95.1 nM.
Compound `Cc1ccc(CCNC(C(=O)Nc2ccc(-c3cnn(C)c3)cn2)c2ccccc2)cn1` (single isomer, unassigned) [141 Isomer 2] came in with an IC50 of over 2000 nM.
As for `Cn1cc(-c2ccc(NC(=O)C(NCCc3ccc(C#N)cn3)c3ccccc3)nc2)cn1` (single isomer, unassigned) [142 Isomer 1], the figure is over 2000 nM; as for `Cn1cc(-c2ccc(NC(=O)C(NCCc3ccc(C#N)cn3)c3ccccc3)nc2)cn1` (single isomer, unassigned) [142 Isomer 2], 210 nM.
The value for `Cc1ccc(C(C)CNC(C(=O)Nc2ccc(-c3cnn(C)c3)cn2)c2ccccc2)cn1` (single isomer, unassigned) [143 Isomer 1] was over 2000 nM; that for `Cc1ccc(C(C)CNC(C(=O)Nc2ccc(-c3cnn(C)c3)cn2)c2ccccc2)cn1` (single isomer, unassigned) [143 Isomer 3] was over 2000 nM; that for `Cc1ccc(C(C)CNC(C(=O)Nc2ccc(-c3cnn(C)c3)cn2)c2ccccc2)cn1` (single isomer, unassigned) [143 Isomer 4] was 171 nM.
Consider `Cn1cc(-c2ccc(NC(=O)C(NCCn3cc(C#N)cn3)c3ccccc3)nc2)cn1` (single isomer, unassigned) [144 Isomer 1], for which the half-maximal inhibitory concentration (IC50) is over 2000 nM.
The value for `Cn1cc(-c2ccc(NC(=O)C(NCCn3cc(C#N)cn3)c3ccccc3)nc2)cn1` (single isomer, unassigned) [144 Isomer 2] was 1070 nM; that for `Cc1cc(C#N)nn1CCNC(C(=O)Nc1ccc(-c2cnn(C)c2)cn1)c1ccccc1` (single isomer, unassigned) [145 Isomer 1] was 783 nM.
The value for `Cc1cc(C#N)nn1CCNC(C(=O)Nc1ccc(-c2cnn(C)c2)cn1)c1ccccc1` (single isomer, unassigned) [145 Isomer 2] was over 2000 nM; that for `CNC(=O)Cn1cc(-c2ccc(NC(=O)C(NC[C@@H](C)c3ccc(C#N)cc3)c3ccccc3)nc2)cn1` (single isomer, unassigned) [146 Isomer 1] was 993 nM.
The value for `CNC(=O)Cn1cc(-c2ccc(NC(=O)C(NC[C@@H](C)c3ccc(C#N)cc3)c3ccccc3)nc2)cn1` (single isomer, unassigned) [146 Isomer 2] was 7.76 nM; that for `C[C@H](CNC(C(=O)Nc1ccc(-c2cnn(CC(N)=O)c2)cn1)c1ccccc1)c1ccc(C#N)cc1` (single isomer, unassigned) [147 Isomer 1] was 1880 nM.
`C[C@H](CNC(C(=O)Nc1ccc(-c2cnn(CC(N)=O)c2)cn1)c1ccccc1)c1ccc(C#N)cc1` (single isomer, unassigned) [147 Isomer 2] returned a concentration for half-maximal inhibition (IC50) of 6.16 nM.
In the case of `Cn1cc(-c2ccc(NC(=O)C(NCCc3ccc(Cl)cc3)c3cnn(C)c3)nc2)cn1` (single isomer, unassigned) [148 Isomer 2], half-maximal inhibition (IC50) required 140 nM.
The compound `Cn1cc(-c2ccc(NC(=O)C(NCC(c3ccc(C#N)cc3)C(F)(F)F)c3ccccc3)nc2)cn1` (single isomer, unassigned) [149 Isomer 1] showed an IC50 of over 2000 nM.
In turn, `Cn1cc(-c2ccc(NC(=O)C(NCC(c3ccc(C#N)cc3)C(F)(F)F)c3ccccc3)nc2)cn1` (single isomer, unassigned) [149 Isomer 3] displayed an IC50 of 647 nM.
